Test system: ICR strain mice
Settings: mouse, in vivo, po, 300 mg/kg
Experimental: Six male ICR strain mice weighing 20 g for each group were administered orally with 300 mg/kg of the test drug (all the test drugs were used in the form of the suspension in 0.5% CMC). Two hours after administration, 5 mm of the tail from the top was cut under pentobarbital anesthesia, and the bleeding was observed by tapping at the cutting site with a filter paper every 15 seconds. The time when the bleeding was observed stopping for one minute is defined as the arrest point of bleeding, and the duration required from the time when the cutting was done to the arrest point of bleeding is defined as the bleeding time. The observation was carried out up to 1200 seconds. Ticlopidine was used as a positive control.

Row | Bleeding time ± standard error | Compound
1 | 417.5 ± 171.22 s | CC(C=C1C(=O)N(c2ccccc2)C1c1ccccc1)=NOCC(=O)O (centres unmarked) [Compound 1, 3-(2-carboxymethoxyiminopropylidene)-1,4-diphenyl-2-azetidinone]
2 | 1127.5 ± 72.50 (note) seconds | Clc1ccccc1CN1CCc2sccc2C1 [ticlopidine]

Reference: patent EP0264232A1, “2-Azetidinone derivatives” (TAISHO PHARMACEUTICAL CO. LTD, priority 1986, dated 1988)
